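96-well plates; 48 h exposure; 5 concentrations. Endpoints by linear interpolation between flanking doses. Not reached: highest tested concentration assigned. GI50: concentration for 50% inhibition of growth.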 Calls of active or inactive are those of the source. Rule as the data show it: active = GI50 up to about 1.1 µM and inactive = higher.
Assays:
Test in all cases: NCI tumour cell line growth inhibition, 48 h
SN12C = test system: SN12C
KM12 = test system: KM12
SK-MEL-28 = test system: SK-MEL-28
NCI-H23 = test system: NCI-H23
SK-MEL-5 = test system: SK-MEL-5
K562 = test system: K562
SK-OV-3 = test system: SK-OV-3
HL-60 = test system: HL-60
CCRF-CEM = test system: CCRF-CEM
T47D = test system: T47D
U-251 = test system: U-251
SW-620 = test system: SW-620
SF-295 = test system: SF-295
IGROV-1 = test system: IGROV-1
MCF7 = test system: MCF7
RXF 393 = test system: RXF 393
MDA-MB-231 = test system: MDA-MB-231
UACC-62 = test system: UACC-62
TK-10 = test system: TK-10
SK-MEL-2 = test system: SK-MEL-2

SMILES	GI50 (SN12C)	GI50 (KM12)	GI50 (SK-MEL-28)	GI50 (NCI-H23)	GI50 (SK-MEL-5)	GI50 (K562)	GI50 (SK-OV-3)	GI50 (HL-60)	GI50 (CCRF-CEM)	GI50 (T47D)	GI50 (U-251)	GI50 (SW-620)	GI50 (SF-295)	GI50 (IGROV-1)	GI50 (MCF7)	GI50 (RXF 393)	GI50 (MDA-MB-231)	GI50 (UACC-62)	GI50 (TK-10)	GI50 (SK-MEL-2)
Cn1c2c(c3ccccc31)CC1c3c(c4ccccc4n3C)CC21 (stereo not drawn)	> 100 µM (inactive)	> 100 µM (inactive)	> 100 µM (inactive)	> 100 µM (inactive)	> 100 µM (inactive)	> 100 µM (inactive)	> 100 µM (inactive)	> 100 µM (inactive)	> 100 µM (inactive)	> 100 µM (inactive)	> 100 µM (inactive)	> 100 µM (inactive)	> 100 µM (inactive)	> 100 µM (inactive)	> 100 µM (inactive)	> 100 µM (inactive)	> 100 µM (inactive)	> 100 µM (inactive)	> 100 µM (inactive)	–
CCc1nnc(S)n1/N=C\c1ccc(-c2ccccc2[N+](=O)[O-])o1	47.3 µM (inactive)	31.8 µM (inactive)	–	33.3 µM (inactive)	12 µM (inactive)	27.9 µM (inactive)	36.1 µM (inactive)	35.6 µM (inactive)	42.1 µM (inactive)	43.9 µM (inactive)	38.5 µM (inactive)	41.7 µM (inactive)	28.7 µM (inactive)	31.7 µM (inactive)	19.9 µM (inactive)	63.5 µM (inactive)	47.2 µM (inactive)	37.6 µM (inactive)	> 100 µM (inactive)	29.4 µM (inactive)
CC(C)=C1C(=O)C[C@]2(C)C[C@H]3O[C@]3(C)CC[C@@H]3O[C@@]3(C)CC[C@@H]12	> 50 µM (inactive)	> 50 µM (inactive)	> 50 µM (inactive)	> 50 µM (inactive)	–	44.3 µM (inactive)	> 50 µM (inactive)	> 50 µM (inactive)	> 50 µM (inactive)	> 50 µM (inactive)	> 50 µM (inactive)	> 50 µM (inactive)	> 50 µM (inactive)	> 50 µM (inactive)	> 50 µM (inactive)	> 50 µM (inactive)	> 50 µM (inactive)	> 50 µM (inactive)	> 50 µM (inactive)	> 50 µM (inactive)
COc1cc(/C=C\c2ccc(SC)cc2)cc(OC)c1OC	0.0667 µM (active)	0.0241 µM (active)	–	0.0268 µM (active)	< 0.0152 µM (active)	< 0.01 µM (active)	0.0141 µM (active)	< 0.0123 µM (active)	0.0202 µM (active)	19.7 µM (inactive)	0.0845 µM (active)	< 0.01 µM (active)	0.0119 µM (active)	0.0632 µM (active)	0.201 µM (active)	0.0117 µM (active)	0.0698 µM (active)	0.0227 µM (active)	23.7 µM (inactive)	0.0188 µM (active)
CSCCCNC(=O)c1csc(-c2csc(CCN)n2)n1	68.1 µM (inactive)	> 100 µM (inactive)	> 100 µM (inactive)	> 100 µM (inactive)	93.1 µM (inactive)	> 100 µM (inactive)	> 100 µM (inactive)	> 100 µM (inactive)	75.2 µM (inactive)	74.1 µM (inactive)	> 100 µM (inactive)	> 100 µM (inactive)	> 100 µM (inactive)	53.6 µM (inactive)	74.1 µM (inactive)	> 100 µM (inactive)	52.5 µM (inactive)	> 100 µM (inactive)	> 100 µM (inactive)	–
COn1cc(C=O)c2ccccc21	> 80.4 µM (inactive)	23.9 µM (inactive)	33.6 µM (inactive)	> 100 µM (inactive)	28.1 µM (inactive)	53.5 µM (inactive)	67 µM (inactive)	0.551 µM (active)	–	65.8 µM (inactive)	55.6 µM (inactive)	26 µM (inactive)	44.1 µM (inactive)	> 62.8 µM (inactive)	45.2 µM (inactive)	45.9 µM (inactive)	> 100 µM (inactive)	41 µM (inactive)	> 54.3 µM (inactive)	> 91.8 µM (inactive)
Cc1cc(C(=O)CBr)c(CN2C(=O)c3ccccc3C2=O)c(=O)n1C	17.6 µM (inactive)	19.5 µM (inactive)	20.4 µM (inactive)	80.4 µM (inactive)	–	3.19 µM (inactive)	> 100 µM (inactive)	5.09 µM (inactive)	2.92 µM (inactive)	25.5 µM (inactive)	12.7 µM (inactive)	3.78 µM (inactive)	38.5 µM (inactive)	26.9 µM (inactive)	17.9 µM (inactive)	11 µM (inactive)	18.1 µM (inactive)	16.6 µM (inactive)	7.43 µM (inactive)	27 µM (inactive)

— ChEMBL document CHEMBL1201862, “PubChem BioAssay data set” (2004)
